The source of these data is patent US20240209004A1, “BORIC ACID DERIVATIVE ACTING AS Beta-LACTAMASE INHIBITOR” (TUOJIE BIOTECH (SHANGHAI) CO., LTD., priority 2021, published 2024).

Each structure is given as a SMILES string. In brackets after ≈: the same amount, converted by molar mass. Structures can show the parent of a compound that is named as a salt. Where two headings read alike, the source gives them in different places.

Data set [1] concerns cefepime-resistant Klebsiella pneumoniae expressing different types of β-lactamases. Briefly: microbe, parasite or virus in culture. The format is cell-based. As to conditions: Klebsiella pneumoniae. The protocol: (§1) The biosafety cabinet was sterilized with ultraviolet light for 30 min. Glycerol tubes were taken out of a −80° C. freezer, and streaks were gently formed in the glycerol tubes using inoculating loops. Bacteria were inoculated onto MHIIA solid plates. The plates were incubated overnight in a 37° C. incubator.
30 μL of compound stock solution was added to column 1 of a 96-well v-bottom plate, and DMSO was added to columns 2-10. Subsequently, 15 μL was transferred from column 1 to column 2 using a pipette and well mixed gently, and then 15 μL of solution was transferred from column 2 to column 3: the serial dilution process proceeded to column 10 (200×β-lactamase inhibitor working solutions were prepared). The antibiotic was diluted with a corresponding solvent to form a 1.6 mg/mL solution.

The subject of data set [2] is Escherichia coli ATCC 25922. Briefly: CPM MIC for control strain (Test Example 2). It counts as cell-based. As to conditions: ATCC25922; control strain Escherichia coli ATCC 25922 (printed range 0.016~0.12 μg/mL). As to the method: as §1
(§2) 30 μL of compound stock solution was added to column 1 of a 96-well v-bottom plate, and DMSO was added to columns 2-10. Subsequently, 15 μL was transferred from column 1 to column 2 using a pipette and well mixed gently, and then 15 μL of solution was transferred from column 2 to column 3; the serial dilution process proceeded to column 10 (200×β-lactamase inhibitor working solutions were prepared). The antibiotic was diluted with a corresponding solvent to form a 1.6 mg/mL solution.

Data set [3] deals with Pseudomonas aeruginosa ATCC 27853. In words: CPM MIC for control strain (Test Example 2). The format is cell-based. As to conditions: ATCC27853; control strain Pseudomonas aeruginosa ATCC 27853 (printed range 0.5~4 μg/mL). As to the method:
as §1, §2

Data set [4] concerns cefepime-resistant Acinetobacter baumannii. Briefly: MIC in combination with cefepime for drug-resistant bacteria (Test Example 2). The format is cell-based. As to conditions: Acinetobacter baumannii, read-out: CPM MIC. As to the method: as §1, §2
For data set [5], the system named is cefepime-resistant Klebsiella pneumoniae. The description is as above. The format is cell-based. As to conditions: Klebsiella pneumoniae, read-out: CPM MIC. The protocol:
as §1, §2

The test system of data set [6] is cefepime-resistant Pseudomonas aeruginosa. The data set is described as above. It counts as cell-based. The protocol: as §1, §2
Data set [7] has as its system cefepime-resistant Escherichia coli. Described as above. Particulars: Escherichia coli, read-out: CPM MIC. It counts as cell-based. The protocol:
as §1, §2

Data set [8] relates to Klebsiella pneumoniae ATCC BAA-1705. In words: MIC of β-lactamase inhibitors in the presence of antibiotic (Test Example 1). It counts as cell-based. As to the method:
(§3) • 1) The antibiotics cefepime and biapenem (purchased from MCE Inc.).
as §1
(§4) 30 μL of compound stock solution was added to column 1 of a 96-well v-bottom plate, and DMSO was added to columns 2-10. Subsequently, 15 μL was transferred from column 1 to column 2 using a pipette and well mixed gently, and then 15 μL of solution was transferred from column 2 to column 3: the serial dilution process proceeded to column 10 (200×β-lactamase inhibitor working solutions were prepared). The two antibiotics were diluted with corresponding solvents to form 1.6 mg/mL solutions.
(§5) 1 μL of 200×B-lactamase inhibitor solution and 1 μL of 1.6 mg/mL antibiotic were added to a new 96-well round-bottom plate. The plate that had been incubated overnight was taken out of the incubator, and several monoclones were picked into normal saline using an inoculating loop. The bacterial solution was adjusted to a concentration of about 1.0×10^8CFU/mL and diluted 200-fold with medium, and 198 μL of the resulting bacterial solution was added to the test plate. The test plate was incubated in a 37° C.incubator for 18-24 h. The 96-well plate that had been incubated for 20 h was taken out of the incubator. The concentration that prevented visible bacterial growth was defined as the minimum inhibitory concentration.

Data set [9] deals with Klebsiella pneumoniae ATCC BAA-2472. Described as above. It counts as cell-based. As to the method: as §3, §1, §4, §5
Data set [10] has as its system Escherichia coli ARLG-2829 (Urine). The description is as above. It counts as cell-based. Particulars: in the presence of Cefepime (8 ug/mL). The protocol: as §3, §1, §4, §5
Data set [11] is described as follows: Single intravenous administration exposure, pharmacokinetics (Test Example 4). The format is in vivo, ICR mice. As to conditions: ICR, mouse, in vivo, iv. The protocol:
The solutions were prepared on the day of administration and stored at 4° C.
Single intravenous injections were administered to ICR mice, which were grouped as follows. Blood was collected from the saphenous vein or the fundus venous plexus at 0.083 h, 0.25 h, 0.5 h, 1 h, 2 h, 4 h, 6 h and 12 h after administration (about 0.1 mL/time point). A biological analysis method was developed to determine plasma concentrations at different time points, and related pharmacokinetic parameters were calculated.

Setting [12] is: in the presence of Biapenem (8 ug/mL).
Where [13] appears, read: in the presence of Cefepime (8 ug/mL).

As to `CO/N=C(\C(=O)N[C@@H]1C(=O)N2C(C(=O)[O-])=C(C[N+]3(C)CCCC3)CS[C@H]12)c1csc(N)n1` [CPM, cefepime], the MIC in data set [1] (ATCCBAA1705, read-out: MIC, CPM, strain ATCC BAA-1705, KPC-2, TEM, SHV, Class A) was greater than 128 µg/mL; in data set [1] (ATCCBAA1705, read-out: MIC, single substance (1-1-Na, QPX7728, CPM), strain ATCC BAA-1705, KPC-2, TEM, SHV, Class A) it was 64 µg/mL (≈ 133 µM); in data set [1] (ATCCBAA1898, read-out: MIC, CPM, strain ATCC BAA-1898, KPC-2, Class A) it was greater than 128 µg/mL; in data set [1] (ATCCBAA1898, read-out: MIC, single substance (1-1-Na, QPX7728, CPM), strain ATCC BAA-1898, KPC-2, Class A) it was 64 µg/mL (≈ 133 µM); in [1] (ATCCBAA1899, read-out: MIC, CPM, strain ATCC BAA-1899, KPC-2, Class A), greater than 128 µg/mL; in [1] (ATCCBAA1899, read-out: MIC, single substance (1-1-Na, QPX7728, CPM), strain ATCC BAA-1899, KPC-2, Class A), 32 µg/mL (≈ 66.6 µM). The MIC in data set [1] (ATCCBAA2343, read-out: MIC, CPM, strain ATCC BAA-2343, KPC, Class A) is greater than 128 µg/mL; in data set [1] (ATCCBAA2343, read-out: MIC, single substance (1-1-Na, QPX7728, CPM), strain ATCC BAA-2343, KPC, Class A) it was 128 µg/mL (≈ 266 µM); in [1] (ATCCBAA2470, read-out: MIC, CPM, strain ATCC BAA-2470, NDM-1, Class B), greater than 128 µg/mL; in [1] (ATCCBAA2470, read-out: MIC, single substance (1-1-Na, QPX7728, CPM), strain ATCC BAA-2470, NDM-1, Class B), greater than 128 µg/mL; in data set [1] (read-out: MIC, CPM, strain ARLG-1127 (Urine), KPC, KPC-3, TEM, TEM-1, Class A), greater than 128 µg/mL; in data set [1] (read-out: MIC, CPM, strain ARLG-1195, CTM-1 group, SHV, NDM, Class A, B) it was greater than 128 µg/mL. Also, the MIC is 128 µg/mL (≈ 266 µM) in [1] (read-out: MIC, CPM, strain ARLG-1196, CTM-1 group, SHV, NDM, TEM, Class A, B); greater than 128 µg/mL in [1] (read-out: MIC, single substance (1-1-Na, QPX7728, CPM), strain ARLG-1127 (Urine), KPC, KPC-3, TEM, TEM-1, Class A); 64 µg/mL (≈ 133 µM) in [1] (read-out: MIC, single substance (1-1-Na, QPX7728, CPM), strain ARLG-1195, CTM-1 group, SHV, NDM, Class A, B); 128 µg/mL (≈ 266 µM) in data set [1] (read-out: MIC, single substance (1-1-Na, QPX7728, CPM), strain ARLG-1196, CTM-1 group, SHV, NDM, TEM, Class A, B); 0.0156 µg/mL (≈ 0.0325 µM) in [2]; 1 µg/mL (≈ 2.08 µM) in [3]. The MIC in [4] (strain FDA-CDC AR-BANK#0033), in [4] (strain FDA-CDC AR-BANK#0035), in data set [4] (strain FDA-CDC AR-BANK#0078), in [5] (strain FDA-CDC AR-BANK#0003), in [5] (strain FDA-CDC AR-BANK#0076) and in data set [5] (strain FDA-CDC AR-BANK#0080) was greater than 8 µg/mL throughout. In addition, the MIC in [5] (strain FDA-CDC AR-BANK#0126) is greater than 8 µg/mL; in data set [5] (strain FDA-CDC AR-BANK#0158), greater than 8 µg/mL; in data set [6] (strain FDA-CDC AR-BANK#0246, read-out: CPM MIC), greater than 8 µg/mL; in data set [6] (strain FDA-CDC AR-BANK#0439, read-out: CPM MIC), greater than 8 µg/mL; in data set [6] (strain FDA-CDC AR-BANK#0441, read-out: CPM MIC), greater than 8 µg/mL; in data set [6] (strain FDA-CDC AR-BANK#0444, read-out: CPM MIC) it was greater than 8 µg/mL. Moreover, the MIC in data set [7] (strain FDA-CDC AR-BANK#0055), in data set [7] (strain FDA-CDC AR-BANK#0114), in [7] (strain FDA-CDC AR-BANK#0370) and in data set [7] (strain FDA-CDC AR-BANK#0371) was greater than 8 µg/mL throughout.
For the compound `O=C(O)c1c2c(cc3c1OB(O)C1CC31)OCCO2` (centres unmarked) [Compound 1], the Minimum inhibitory concentration in [8] (setting [12]) was no more than 0.03125 µg/mL; in data set [8] (setting [13]), 0.5 µg/mL; in [9] (setting [12]) it was 4 µg/mL; in data set [9] (setting [13]), 16 µg/mL; in [10] it was 0.5 µg/mL.
As to `O=C(O)c1c2c(cc3c1OB(O)C1CC31)OC(F)(F)O2` (centres unmarked) [Compound 2], the Minimum inhibitory concentration in [8] (setting [12]) was 1 µg/mL; in [8] (setting [13]), greater than 16 µg/mL; in data set [9] (setting [12]) it was greater than 16 µg/mL; in data set [9] (setting [13]) it was greater than 16 µg/mL; in [10] it was greater than 16 µg/mL.
On to `O=C(O)c1c(F)ccc2c1OB(O)[C@@H]1C[C@H]21` [QPX7728 disodium salt], for which, in [11] (10 mg/kg), the AUC(0-inf) (in general, the area under the concentration-time curve extrapolated to infinity) came to 46 µg·h/mL; the AUC(0-t) – broadly, exposure summed from dosing to a finite time, without extrapolation to infinity – turned out to be 44.7 µg·h/mL; the peak concentration (Cmax) (in general, the highest concentration seen after dosing) came to 65.8 µg/mL; the Tmax (as a rule, the time at which the peak concentration occurs) is 4.98 min. For the same compound, in [11] (10 mg/kg), the t½z came to 174 min. Further, in data set [11] (100 mg/kg), the AUC(0-inf) was found to be 300 µg·h/mL, the AUC(0-t) amounted to 297 µg·h/mL, the highest level (Cmax) was 399 µg/mL and the Tmax turned out to be 4.98 min. Also, the t½z in [11] (100 mg/kg) was found to be 126 min.
Regarding `NCCN[C@H]1CC[C@H](CC(=O)N[C@H]2Cc3cccc(C(=O)O)c3OB2O)CC1` [VNRX-5133], the Minimum inhibitory concentration in [8] (setting [12]) was no more than 0.03125 µg/mL; in data set [8] (setting [13]) it was 0.25 µg/mL; in [9] (setting [12]) it was 2 µg/mL; in data set [9] (setting [13]) it was greater than 16 µg/mL; in [10], 2 µg/mL.
